Results: paper PMC9402538, “Rational design of a sensitivity-enhanced tracer for discovering efficient APC–Asef inhibitors” (Nature Communications, 2022)
Like-named read-outs stand apart in the source and are kept apart here. Where a SMILES comes first, the peptide text is derived from it. [ ]: non-standard residue; d: D form. The star is where a group is joined. Cyclohexanecarbonyl = O=C(C1CCCCC1)*; Cyclopentanecarbonyl = O=C(C1CCCC1)*; Benzoyl(4-OMe) = COc1ccc(C(=O)*)cc1; Benzoyl(4-Me) = Cc1ccc(C(=O)*)cc1; Ala(cPr) = N[C@@H](CC1CC1)C(=O)O; Oxazole2carbonyl = O=C(c1ncco1)*; Cha = N[C@@H](CC1CCCCC1)C(=O)O; Isonicotinoyl = O=C(c1ccncc1)*; hLeu = CC(C)CC[C@H](N)C(=O)O; Nicotinoyl = O=C(c1cccnc1)*; 2Furoyl = O=C(c1ccco1)*; Acryloyl = C=CC(=O)*; X3 = O=C(c1ccncn1)*; Mpa = O=C(O)CCS

Molecular target: T1, APC (303–739) (Homo sapiens, UniProt P25054)
T1 sequence (P25054 303-739): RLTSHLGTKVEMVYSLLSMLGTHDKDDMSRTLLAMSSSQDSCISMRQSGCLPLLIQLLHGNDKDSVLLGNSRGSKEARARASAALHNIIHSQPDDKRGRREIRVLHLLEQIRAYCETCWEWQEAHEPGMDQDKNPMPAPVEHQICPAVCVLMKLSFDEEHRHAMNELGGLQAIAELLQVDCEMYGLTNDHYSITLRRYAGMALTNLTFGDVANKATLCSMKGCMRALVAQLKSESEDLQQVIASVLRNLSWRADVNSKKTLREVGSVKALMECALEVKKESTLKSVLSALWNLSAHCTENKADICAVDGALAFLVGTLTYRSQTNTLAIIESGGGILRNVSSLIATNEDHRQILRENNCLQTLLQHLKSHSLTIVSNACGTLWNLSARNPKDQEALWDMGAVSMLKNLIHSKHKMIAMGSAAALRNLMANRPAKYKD
Assay: FP competitive assay using tracer 7
Type: binding
Description: FITC-labeled tracer peptides were obtained from Changzhou Kanglong Biotech Ltd. (Changzhou, Jiangsu, China). […]. The FP signal changes upon tracer binding were measured after 1.5 h of incubation using a Synergy neo microplate reader (BioTek Instruments, Inc.) and plotted against the protein concentration. The corresponding EC50 values were generated by fitting the curves with a nonlinear regression model. […]. To make a working solution, APC (303–739) was diluted in FP buffer (50 mM HEPES, pH 7.5, 300 mM NaCl, 1 mM EDTA, 1 mM DTT). The diluted APC protein (91 μL) was combined with a serial dilution of peptides (4 μL) and incubated at room temperature for 1 h, followed by the addition of 5 μL of 400 nM tracer 7. The FP signals were measured after 1.5 h of incubation at room temperature using a Synergy neo microplate reader. Three controls were included on each plate, i.e., blank (without protein and tracer), 100% inhibition (free tracer only), and 0% inhibition (protein/tracer complex only) controls. All experiments were performed in triplicate. The IC50 values of peptides were calculated by nonlinear regression analysis using GraphPad Prism 7.0 software.

[1] = Supplementary Table 4, read-out: IC50, Tracer 7
[2] = Repeat 1, Table 3 source data, read-out: IC50(μM) Repeat 1
[3] = Repeat 2, Table 3 source data, read-out: IC50(μM) Repeat 2
[4] = Repeat 3, Table 3 source data, read-out: IC50(μM) Repeat 3
[5] = mean of 3 repeats, Table 3 source data, read-out: IC50(μM) mean
[6] = tracer 7, mean of three repeats, read-out: IC50 mean
[7] = tracer 7, read-out: IC50 Repeat 1
[8] = tracer 7, read-out: IC50 Repeat 2
[9] = tracer 7, read-out: IC50 Repeat 3

| Compound | IC50 [1] [µM] | IC50 [2] [µM] | IC50 [3] [µM] | IC50 [4] [µM] | IC50 [5] [µM] | IC50 [6] [µM] | IC50 [7] [µM] | IC50 [8] [µM] | IC50 [9] [µM] |
| --- | --- | --- | --- | --- | --- | --- | --- | --- | --- |
| CC(C)C[C@H](NC(=O)[C@H](CO)NC(=O)[C@H](CCC(=O)O)NC(=O)CNC(=O)[C@H](C)NC(=O)CCS)C(=O)N[C@@H](Cc1ccc(O)cc1)C(=O)N[C@@H](CCC(=O)O)C(N)=O [MAI-502] ([Mpa]AGESLYE-NH2) | – | 2.46 | 1.52 | 2.21 | 2.06 | – | – | – | – |
| CC(C)C[C@H](NC(=O)[C@H](CO)NC(=O)[C@H](CCC(=O)O)NC(=O)CNC(=O)[C@H](C)NC(=O)C1CCCC1)C(=O)N[C@@H](Cc1ccc(O)cc1)C(=O)N[C@@H](CCC(=O)O)C(N)=O [MAI-503] (Cyclopentanecarbonyl-AGESLYE-NH2) | – | 7.09 | 5.22 | 5.07 | 5.79 | – | – | – | – |
| CC(C)C[C@H](NC(=O)[C@H](CO)NC(=O)[C@H](CCC(=O)O)NC(=O)CNC(=O)[C@H](C)NC(=O)C1CCCCC1)C(=O)N[C@@H](Cc1ccc(O)cc1)C(=O)N[C@@H](CCC(=O)O)C(N)=O [MAI-504] (Cyclohexanecarbonyl-AGESLYE-NH2) | – | 2.24 | 1.66 | 1.59 | 1.83 | – | – | – | – |
| Cc1ccc(C(=O)N[C@@H](C)C(=O)NCC(=O)N[C@@H](CCC(=O)O)C(=O)N[C@@H](CO)C(=O)N[C@@H](CC(C)C)C(=O)N[C@@H](Cc2ccc(O)cc2)C(=O)N[C@@H](CCC(=O)O)C(N)=O)cc1 [MAI-515] ({Benzoyl(4-Me)}-AGESLYE-NH2) | – | 0.261 | 0.204 | 0.254 | 0.239 | – | – | – | – |
| COc1ccc(C(=O)N[C@@H](C)C(=O)NCC(=O)N[C@@H](CCC(=O)O)C(=O)N[C@@H](CO)C(=O)N[C@@H](CCC(C)C)C(=O)N[C@@H](Cc2ccc(O)cc2)C(=O)N[C@@H](CCC(=O)O)C(N)=O)cc1 [MAI-517] ({Benzoyl(4-OMe)}-AGES[hLeu]YE-NH2) | – | – | – | – | – | 0.0247 | 0.0255 | 0.0285 | 0.0202 |
| COc1ccc(C(=O)N[C@@H](C)C(=O)NCC(=O)N[C@@H](CCC(=O)O)C(=O)N[C@@H](CO)C(=O)N[C@@H](CC2CC2)C(=O)N[C@@H](Cc2ccc(O)cc2)C(=O)N[C@@H](CCC(=O)O)C(N)=O)cc1 [MAI-518] ({Benzoyl(4-OMe)}-AGES[Ala(cPr)]YE-NH2) | – | – | – | – | – | 0.0449 | 0.0454 | 0.047 | 0.0424 |
| COc1ccc(C(=O)N[C@@H](C)C(=O)NCC(=O)N[C@@H](CCC(=O)O)C(=O)N[C@@H](CO)C(=O)N[C@@H](CC2CCCCC2)C(=O)N[C@@H](Cc2ccc(O)cc2)C(=O)N[C@@H](CCC(=O)O)C(N)=O)cc1 [MAI-520] ({Benzoyl(4-OMe)}-AGES[Cha]YE-NH2) | – | – | – | – | – | 0.0509 | 0.0544 | 0.0551 | 0.0432 |

The remaining lines, values ahead:

| IC50 [1] [µM] | IC50 [2] [µM] | IC50 [3] [µM] | IC50 [4] [µM] | IC50 [5] [µM] | IC50 [6] [µM] | IC50 [7] [µM] | IC50 [8] [µM] | IC50 [9] [µM] | Compound |
| --- | --- | --- | --- | --- | --- | --- | --- | --- | --- |
| 0.86 ± 0.03 | – | – | – | – | – | – | – | – | CC(C)C[C@H](NC(=O)[C@H](CO)NC(=O)[C@H](CCC(=O)O)NC(=O)CNC(=O)[C@H](C)NC(=O)c1ncco1)C(=O)N[C@@H](Cc1ccc(O)cc1)C(=O)N[C@@H](CCC(=O)O)C(N)=O [MAI-455] (Oxazole2carbonyl-AGESLYE-NH2) |
| 0.22 ± 0.01 | – | – | – | – | – | – | – | – | CC(C)C[C@H](NC(=O)[C@H](CO)NC(=O)[C@H](CCC(=O)O)NC(=O)CNC(=O)[C@H](C)NC(=O)c1ccncn1)C(=O)N[C@@H](Cc1ccc(O)cc1)C(=O)N[C@@H](CCC(=O)O)C(N)=O [MAI-464] (X3-AGESLYE-NH2) |
| – | 29.9 | 19.1 | 22 | 23.7 | – | – | – | – | C=CC(=O)N[C@@H](C)C(=O)NCC(=O)N[C@@H](CCC(=O)O)C(=O)N[C@@H](CO)C(=O)N[C@@H](CC(C)C)C(=O)N[C@@H](Cc1ccc(O)cc1)C(=O)N[C@@H](CCC(=O)O)C(N)=O [MAI-501] (Acryloyl-AGESLYE-NH2) |
| – | 0.323 | 0.419 | 0.457 | 0.4 | – | – | – | – | CC(C)C[C@H](NC(=O)[C@H](CO)NC(=O)[C@H](CCC(=O)O)NC(=O)CNC(=O)[C@H](C)NC(=O)c1ccco1)C(=O)N[C@@H](Cc1ccc(O)cc1)C(=O)N[C@@H](CCC(=O)O)C(N)=O [MAI-506] (2Furoyl-AGESLYE-NH2) |
| – | 0.234 | 0.331 | 0.318 | 0.294 | – | – | – | – | CC(C)C[C@H](NC(=O)[C@H](CO)NC(=O)[C@H](CCC(=O)O)NC(=O)CNC(=O)[C@H](C)NC(=O)c1cccnc1)C(=O)N[C@@H](Cc1ccc(O)cc1)C(=O)N[C@@H](CCC(=O)O)C(N)=O [MAI-513] (Nicotinoyl-AGESLYE-NH2) |
| – | 0.116 | 0.128 | 0.0999 | 0.114 | – | – | – | – | CC(C)C[C@H](NC(=O)[C@H](CO)NC(=O)[C@H](CCC(=O)O)NC(=O)CNC(=O)[C@H](C)NC(=O)c1ccncc1)C(=O)N[C@@H](Cc1ccc(O)cc1)C(=O)N[C@@H](CCC(=O)O)C(N)=O [MAI-514] (Isonicotinoyl-AGESLYE-NH2) |
